Several values for one entry are separate records, joined by “and”; a condition that tells them apart may be missing. Equal entries are not always repeated. Entries after “also recorded” stand apart in the source; their conditions may differ.
Legend:
[1] = target: T1, mouse NTCP (Mus musculus, UniProt O08705); assay: Taurocholate uptake in U2OS cells transiently transfected with mouse NTCP; format: cell-based; details: at the calculated IC50 value for hNTCP
T1 construct: expressed in transfected cells; host or cells: U2OS (transient transfection, PEI)
T1 sequence (O08705 1-362): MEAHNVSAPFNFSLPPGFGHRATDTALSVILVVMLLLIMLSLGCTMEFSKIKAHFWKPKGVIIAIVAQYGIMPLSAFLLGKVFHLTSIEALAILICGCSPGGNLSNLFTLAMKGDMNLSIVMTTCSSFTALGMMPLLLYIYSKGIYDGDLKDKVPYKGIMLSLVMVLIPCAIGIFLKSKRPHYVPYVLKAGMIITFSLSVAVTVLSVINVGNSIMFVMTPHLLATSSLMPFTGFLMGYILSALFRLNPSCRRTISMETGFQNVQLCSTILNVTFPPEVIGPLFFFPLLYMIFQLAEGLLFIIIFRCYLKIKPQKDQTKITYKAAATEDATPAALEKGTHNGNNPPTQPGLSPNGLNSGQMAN
Experimental: (§1) U2OS and MDCK cells were grown in Dulbecco’s modified Eagle’s medium (DMEM, Sigma-Aldrich), supplemented with 10% FCS (Gibco), 1% L-glutamine (Lonza), and 1% penicillin/streptomycin (Lonza). […] Transient transfection of U2OS cells with mouse NTCP (mNTCP) was done with PEI reagent (Brunschwig, Basel, Switzerland). Shortly, U2OS cells were seeded one day prior to transfection in 24-well plates. On the day of transfection, 0.5 µg DNA was mixed with 100 µl unsupplemented DMEM and 3 µg/µl PEI. After 10–15 minute incubation at RT, 20 µl of the transfection mix was added to each 24-well. Transfected cells were used in further experiments 48–72 hours later. Cell lines were passaged twice a week at a confluence of 80%, and incubated in a humidified atmosphere of 37 °C + 5% CO2.
(§2) For MDCK or MDCK-hASBT cells 70.000 cells/well were plated in 24-well plates, followed by 24 hours 10 mM sodium butyrate (Sigma-Aldrich) stimulation the next day. Cells were used in the inhibition studies 24 hours (U2OS cell lines) or 48 hours (MDCK cell lines) later. Inhibition studies with mNTCP transiently transfected cells were conducted 48–72 hours after transfection.
(§3) Medium was aspirated from the wells and cells were washed once with 250 µL uptake buffer. Subsequently, cells were pre-incubated with drug in 150 µL uptake buffer for 10 minutes at 37 °C. Taurocholate uptake was initiated by addition of 100 µL uptake buffer containing taurocholate (final concentration 10 µM TC spiked with tritium-labeled TC) and cells were incubated for 2 minutes at 37 °C. Subsequently, cells were washed 4 times with ice-cold PBS and lysed with 0.05% SDS in water. Radioactivity was measured by liquid scintillation counting.

[2] = target: T2, human ASBT (Homo sapiens, UniProt Q12908); assay: Taurocholate uptake in MDCK-hASBT cells; format: cell-based; details: compared with NTCP
T2 construct: expressed in transfected cells; gift of Paul Dawson; induced with sodium butyrate
T2 sequence (Q12908 1-348): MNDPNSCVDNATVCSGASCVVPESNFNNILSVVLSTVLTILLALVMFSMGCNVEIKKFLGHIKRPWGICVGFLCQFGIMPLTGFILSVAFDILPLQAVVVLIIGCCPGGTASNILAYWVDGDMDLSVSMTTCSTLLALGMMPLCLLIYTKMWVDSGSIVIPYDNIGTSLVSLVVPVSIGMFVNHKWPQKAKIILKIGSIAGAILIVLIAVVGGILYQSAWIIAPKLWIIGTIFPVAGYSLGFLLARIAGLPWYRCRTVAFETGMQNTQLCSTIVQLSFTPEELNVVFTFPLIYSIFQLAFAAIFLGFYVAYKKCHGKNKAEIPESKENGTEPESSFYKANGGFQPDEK
Experimental: as §1, §2, §3

[3] = system: HBV
[4] = system: patient-derived HBV (genotype B); assay: Serum-derived HBV genotype B infection of HepaRG cells stably transduced with hNTCP; format: cell-based, hepatitis B virus; details: NTCP-overexpressing HepaRG cells
Experimental: Supplementary materials and methods Serum-derived HBV genotype B infection study For these experiments HepaRG cells stably transduced with hNTCP were used. Differentiation and serum-derived HBV genotype B infection were performed following similar protocols as described for wildtype HepaRG cells in the main materials&methods with the following changes: 8 hours infection and supernatant collection for HBeAg and HBsAg analysis from day 9 to 12. Total RNA was extracted from cells 12 days after infection using the NucleoSpin RNA isolation kit (Macherey-Nagel). Reverse transcription was performed with the High-Capacity cDNA Reverse Transcription Kit (Thermo Scientific). mRNA levels were determined by qPCR using the iTaq™ Universal SYBR® Green Supermix (Bio-rad) with HBV specific primers (forward: 5’-[…]-3’; reverse: 5’-[…]-3’). GAPDH mRNA levels were used for normalization (forward: 5’-[…]-3’; reverse: 5’-[…]-3’). Total DNA was extracted from cells 12 days after infection using the NucleoSpin Tissue kit (Macherey-Nagel). HBV DNA levels were determined by qPCR PerfeCTa qPCR Toughmix (Quanta Biosciences) with HBV specific primers (forward: 5’- […]-3’; reverse: 5’- […]-3’) and a probe (5’-TxRed-[…]-BHQ2-3’). β-globin levels were used for normalization (forward: 5’- […]-3’; reverse: 5’- […]-3’; probe: 5’-HEX- […]-BHQ1-3’). […]

[5] = in vitro; details: human
[6] = sulfasalazine 1 gram; ref 5 (supplement); cited from earlier work

O=C(O)c1cc(/N=N/c2ccc(S(=O)(=O)Nc3ccccn3)cc2)ccc1O [Sulfasalazine]
inhibition of mouse Ntcp-mediated taurocholate uptake compared with human NTCP [1]: inhibited similarly as human NTCP
inhibition of ASBT-mediated taurocholate uptake [2]: largely ineffective
inhibition of ASBT-mediated taurocholate uptake ([2]; listed as sulfasalazine): Complete absence of ASBT inhibition
HBV infection in HepaRG cells (in words) ([3]; HBeAg, HBsAg, HBcAg, concentration-dependent): reduced HBV/HDV infection; also recorded: reduce
concentration effective in reducing HBsAg ([3]; HepaRG cells infected with HBV, supernatant day 7 to 10): ≥ 50 µM
number of HBcAg positive stained cells ([3]; HepaRG cells, day 10 post HBV infection, 50 µM): mild reduction
HBeAg, HBsAg, HBV DNA and HBV RNA after serum-derived HBV infection [4]: reduced HBeAg, HBsAg, HBV DNA, and HBV RNA in a dose-dependent fashion
HBeAg, HBsAg, HBV DNA and HBV RNA after serum-derived HBV infection ([4]; listed as sulfasalazine): reduced by sulfasalazine in a dose-dependent fashion
viability at 2 h, 1 µM [5]: 100 ± 6.9%
viability at 2 h, 10 µM [5]: 101 ± 8.4%
viability at 2 h, 100 µM [5]: 97.8 ± 8%
Expected serum concentration [6]: 6 µg/ml and ~15 µM

— publication PMC5681660, “Reduced hepatitis B and D viral entry using clinically applied drugs as novel inhibitors of the bile acid transporter NTCP” (Scientific Reports, 2017)
